How the values were obtained:
[1] = test system: wild-type soybean plants (CK1); experiment: Glyphosate tolerance of wild-type soybean plants, herbicide damage rate; format: in vivo; details: 840 g ae/ha, 1-fold field concentration, 14 days after spraying
From the text: (§1) The herbicide tolerance effects of Gm cytoplasmic ALT-1-01 soybean plants, Gm chloroplastic ALT-1-01 soybean plants, Gm cytoplasmic ALT-2-01 soybean plants, Gm chloroplastic ALT-2-01 soybean plants, Gm cytoplasmic ALT-3-01 soybean plants, Gm chloroplastic ALT-3-01 soybean plants and wild-type soybean plants on glyphosate were detected (at seedling stage), respectively.
(§2) 2 strains from Gm cytoplasmic ALT-1-01 soybean plants, Gm chloroplastic ALT-1-01 soybean plants, Gm cytoplasmic ALT-2-01 soybean plants, Gm chloroplastic ALT-2-01 soybean plants, Gm cytoplasmic ALT-3-01 soybean plants, Gm chloroplastic ALT-3-01 soybean plants and wild-type soybean plants were respectively taken each, and 10-15 plants were selected from each strain and tested. The plants above were sprayed with glyphosate (840 g ae/ha, 1-fold field concentration) and a blank solvent (water). The herbicide damage rate was measured for each plant according to the phytotoxicity symptoms 14 days after spraying (14 DAT): herbicide damage rate (%)=Σ(number of damaged plants at the same level×level number)/(total number of plants×highest level).

[2] = test system: transgenic soybean plants (Gm cytoplasmic/chloroplastic ALT-1-01, ALT-2-01, ALT-3-01); experiment: Glyphosate tolerance of transgenic soybean plants (ALT + EPSPS), herbicide damage rate; format: in vivo; details: 840 g ae/ha, 1-fold field concentration, 14 days after spraying
From the text: as §1, §2

## O=C(O)CNCP(=O)(O)O [glyphosate, N-phosphonomethylglycine]
[1]
  glyphosate herbicide damage rate: not less than 90%
[2]; Gm chloroplastic ALT-1-01 soybean plants
  glyphosate herbicide damage rate: ~0%
[2]; Gm chloroplastic ALT-2-01 soybean plants
  glyphosate herbicide damage rate: ~0%
[2]; Gm chloroplastic ALT-3-01 soybean plants
  glyphosate herbicide damage rate: ~0%
[2]; Gm cytoplasmic ALT-1-01 soybean plants
  glyphosate herbicide damage rate: ~0%
[2]; Gm cytoplasmic ALT-2-01 soybean plants
  glyphosate herbicide damage rate: ~0%
[2]; Gm cytoplasmic ALT-3-01 soybean plants
  glyphosate herbicide damage rate: ~0%

— patent publication US20190055576A1, “USE OF HERBICIDE-TOLERANT PROTEIN” (BEIJING DABEINONG TECHNOLOGY GROUP CO., LTD., priority 2016, published 2019)
